Source: patent US20240238460A1, “IMPROVED PROSTATE-SPECIFIC MEMBRANE ANTIGEN TARGETING RADIOPHARMACEUTICALS AND USES THEREOF” (TELIX PHARMACEUTICALS (INNOVATIONS) PTY LTD, priority 2021, published 2024)
pKi: −log10 of the molar value.

Tests used:
PSMA = biological target: T1, PSMA (Homo sapiens, UniProt Q04609); assay: Competitive binding experiments on LNCaP cells (competitor 2-PMPA), Ki by Cheng-Prusoff; conditions: 1 h, calculated from IC50 with cheng-prusoff equation, values printed in parentheses
T1 construct: endogenous in cells; host or cells: LNCaP cells
T1 sequence (Q04609 whole entry): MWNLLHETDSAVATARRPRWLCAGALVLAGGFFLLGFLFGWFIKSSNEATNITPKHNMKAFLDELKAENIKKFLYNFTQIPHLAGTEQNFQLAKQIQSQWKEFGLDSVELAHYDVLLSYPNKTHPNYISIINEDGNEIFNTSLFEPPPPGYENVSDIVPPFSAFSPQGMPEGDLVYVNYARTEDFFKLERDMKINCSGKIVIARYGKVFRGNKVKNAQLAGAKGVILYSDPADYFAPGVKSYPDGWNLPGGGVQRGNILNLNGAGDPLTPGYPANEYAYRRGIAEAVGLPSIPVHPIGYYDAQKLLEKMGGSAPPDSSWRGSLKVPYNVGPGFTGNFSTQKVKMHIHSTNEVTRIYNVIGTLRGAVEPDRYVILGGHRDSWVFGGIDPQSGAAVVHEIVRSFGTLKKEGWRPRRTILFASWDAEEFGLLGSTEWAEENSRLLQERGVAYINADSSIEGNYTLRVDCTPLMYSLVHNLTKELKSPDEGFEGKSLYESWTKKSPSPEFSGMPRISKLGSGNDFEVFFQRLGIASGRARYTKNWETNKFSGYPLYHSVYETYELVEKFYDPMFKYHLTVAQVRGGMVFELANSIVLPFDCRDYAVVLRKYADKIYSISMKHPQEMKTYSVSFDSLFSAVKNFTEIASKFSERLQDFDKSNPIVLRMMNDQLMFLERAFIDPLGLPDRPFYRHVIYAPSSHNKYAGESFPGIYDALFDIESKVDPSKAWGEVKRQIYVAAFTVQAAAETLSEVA
Procedure: (§1) Phosphate buffer was prepared from 890 mg Na2PO4.2H2O in 9.5 mL water for injection and 0.5 mL 2 m NaOH. After dissolution of the salts, the buffer was sterile filtered, the pH was determined using pH stripes (pH=11.5-12.0). The labeling mixture consisted of 1 μl precursor solution (1 mg/ml in MeCH/H2O 20:50; approx. 1 nmol), 20 μl phosphate buffer, 10 μl […] (TCEP; 28.7 mg/mL in phosphate buffer; 0.1 molar solution) and 4-10 μL pertechnetate in saline (0.9% NaCl; generator cluate) containing an activity of approx. 7.5 MBq. The mixture was filled to 100 μl with saline (0.9% NaCl; 59-65 μL). The pH of the reaction mixture was 8.0-8.5 (tendency towards 8.5). The mixture was heated at 98° C. for 10 minutes. After cooling to room temperature, the mixture was diluted to 1 mL by addition of saline (0.9% NaCl, ligand concentration 1 μm). An aliquot was analyzed by HPLC to determine the radiochemical yield (RCY) (method B, see example 9). Aliquots of the product mixture containing the ^99mTc-labeled ligand were further diluted to a concentration of approx. 100 nM (precursor) in PBS with and without a 10000 fold excess of 2-(Phosphonomethyl)-pentandioic acid, 2-Phosphonomethyl pentanedioic acid (2-PMPA) as competitor.
For determination of Ki, competitive binding experiments were conducted. […] The cellular uptake was determined from the activity in the lysed fraction.

LNCaP cells = assay: Cellular uptake experiments with 99mTc-labeled ligands in LNCaP cells (with and without 2-PMPA competitor); assay type: cell-based
Procedure: as §1
Cellular uptake experiments were conducted in analogy to previously described procedures (Lindner et al., Doi.: 10.2967/jnumed.118.210443). Briefly, LNCaP cells were seeded in 6-Well plates in RPMI medium containing 20% FBS (two day of incubation prior to the experiment) and grown to a confluency of 70-80%. For the uptake experiment, the medium was removed and the cells were incubated with 1 mL of a 1:99 dilution of the 100 nM product mixture dilutions (with and without competitor) described in Example 3. […] The cellular uptake was determined from the activity in the lysed fraction. The unspecific uptake was determined from the cellular uptake of the cells incubated with the ligand in presence of the competitor. […]

Q: Which results are given for “^99mTc-EDDA-HYNIC-iPSMA [[^99mTc]TLX-598]”?
A: pKi (PSMA): 7.42; Specific uptake (LNCaP cells; 1 h, unspecific uptake subtracted from cellular uptake): 18.7 ± 0.3 % AD/10^6 cells; Unspecific uptake (LNCaP cells; 1 h incubation, in presence of 10000 fold excess 2-PMPA): 1.64 ± 0.07 % AD/10^6 cells; Uptake (LNCaP cells; 1 h incubation, triplicate): 20.3 ± 0.3 % AD/10^6 cells
